“Also recorded” adds a separate entry of the source.
Key:
Format in all cases: cell-based
hMRGPRX2 = target: T1, hMRGPRX2 (Homo sapiens, UniProt Q96LB1); assay: Concentration-effect curves of substance P versus QWF, stable HEK-293 cell line; conditions: stable HEK-293 clone; experiment done once, triplicate points
T1 construct: expressed in transfected cells
T1 sequence (Q96LB1 1-330): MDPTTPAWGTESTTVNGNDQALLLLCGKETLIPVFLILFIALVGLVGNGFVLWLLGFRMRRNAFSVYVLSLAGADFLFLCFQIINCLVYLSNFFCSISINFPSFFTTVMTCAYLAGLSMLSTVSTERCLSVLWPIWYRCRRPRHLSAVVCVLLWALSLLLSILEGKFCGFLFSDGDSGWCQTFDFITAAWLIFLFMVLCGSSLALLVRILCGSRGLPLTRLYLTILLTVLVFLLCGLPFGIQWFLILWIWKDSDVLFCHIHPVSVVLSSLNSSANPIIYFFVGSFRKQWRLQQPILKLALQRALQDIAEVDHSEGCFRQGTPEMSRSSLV
Excerpt: Concentration-effect curves with substance P versus the indicated concentrations of QWF on a stable HEK-293 cell line expressing hMRGPRX2. HEK293 cells were transfected with a pcDNA3.1(−) vector containing MRGPRX2 cDNA and clones resistant to […] (G418) were selected. The data were generated from one of those clones. The experiment was done once with each data point done in triplicate. Error bars represent+/−SEM.

human LAD2 mast cells = assay: Human LAD2 mast cell degranulation assay (β-hexosaminidase release); conditions: LAD2 cells preincubated with 100 μM QWF for 10 min
Protocol: The human LAD2 mast cell line (from D. Metcalfe, National Institute of Allergy and Infectious Diseases, NIH, Bethesda, Md.) was cultured in StemPro-34 SFM medium (LIFE TECHNOLOGIES) supplemented with 2 mM L-glutamine, 100 U/ml penicillin, 100 μg/ml streptomycin, and 100 ng/ml recombinant human stem cell factor (PEPROTECH). The cells were maintained at 0.25-5×10^5 cells/ml at 37° C. and 5% CO2 and hemi-depleted each week.
Degranulation was measured as described previously (36). In brief, LAD2 cells were preincubated with 100 μM QWF for 10 min before activation by agonists at indicated concentrations for 30 min. The level of mast cell degranulation was assessed by the release of β-hexosaminidase in mast cell granules, quantified by the level of its substrate p-nitrophenyl N-acetyl-β-D-glucosamide (PNAG) digested in a colorimetric assay.

NK1R (NK1) = target: T2, NK1R (NK1) (Homo sapiens, UniProt P25103); assay: Calcium imaging of cells transfected with the GPCR (Table 1); conditions: FIG. 6a: SP 5 nM, inhibitors 1 μM
T2 construct: host or cells: HeLa cells, pcDNA3.1(-)
T2 sequence (P25103 whole entry): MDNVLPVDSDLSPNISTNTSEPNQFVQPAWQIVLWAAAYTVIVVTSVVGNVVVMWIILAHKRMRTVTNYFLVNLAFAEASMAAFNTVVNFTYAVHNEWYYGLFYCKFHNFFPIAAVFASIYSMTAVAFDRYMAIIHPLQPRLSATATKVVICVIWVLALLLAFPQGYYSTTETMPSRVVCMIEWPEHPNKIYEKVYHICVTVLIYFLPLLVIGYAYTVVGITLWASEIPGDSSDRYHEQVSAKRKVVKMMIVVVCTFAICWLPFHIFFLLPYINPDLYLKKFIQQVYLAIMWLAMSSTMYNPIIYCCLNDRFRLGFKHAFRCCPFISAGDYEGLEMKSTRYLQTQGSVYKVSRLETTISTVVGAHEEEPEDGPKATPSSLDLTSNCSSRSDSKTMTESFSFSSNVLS
Protocol: (§1) Human NK1 cDNA was obtained from LIFE Technologies, PCR cloned with Xho I-Hind III ends and cloned into pcDNA3.1(−). Mouse NK2 and NK3 expression-ready vectors were obtained from […] (Piscataway, N.J.). All other Mrgprs (human MRGPRX1, human MRGPRX2, human MRGPRX3, human MRGPRX4, mouse MrgprA2a, mouse MrgprA2b, mouse MrgprA3, mouse MrgprA4, mouse MrgprA9, mouse MrgprA10, mouse MrgprB4 and mouse MrgprB5) were cloned by PCR from genomic DNAs and inserted into pcDNA3.1 (−).
(§2) 10 μg of expression vector (human MRGPRX2, mouse MrgprA1 or NK1) and 10 μl of LIPOFECTAMINE 2000 transfection reagent were diluted into 0.5 ml of DMEM and separately left at room temperature (RT) for 5 min. They were then mixed and incubated at RT for 20 minutes prior to being added to HeLa cells. HeLa cells were grown to confluence, trypsinized and 1×10^6 cells were pelleted in a 15 ml tube by centrifugation at 1000 rpm for 5 minutes. […]
Calcium imaging was performed immediately after loading cells with Fura-2, using a ZEISS Axiovert 200M microscope platform equipped with a flipping filter wheel for ratiometric imaging. […] The software later analyzed all images taken during each excitation period. Ratiometric changes were measured in 10-20 cells in each individual experiment. An average of the fluorescence of the cells in each image was calculated and plotted against time in seconds.

MrgX4 (human MRGPRX4) = target: T3, MrgX4 (human MRGPRX4) (Homo sapiens, UniProt Q96LA9); assay: as above; conditions: SP 10 μM (FIG. 9)
T3 construct: expressed in transfected cells; host or cells: HeLa cells, pcDNA3.1(-)
T3 sequence (Q96LA9 whole entry): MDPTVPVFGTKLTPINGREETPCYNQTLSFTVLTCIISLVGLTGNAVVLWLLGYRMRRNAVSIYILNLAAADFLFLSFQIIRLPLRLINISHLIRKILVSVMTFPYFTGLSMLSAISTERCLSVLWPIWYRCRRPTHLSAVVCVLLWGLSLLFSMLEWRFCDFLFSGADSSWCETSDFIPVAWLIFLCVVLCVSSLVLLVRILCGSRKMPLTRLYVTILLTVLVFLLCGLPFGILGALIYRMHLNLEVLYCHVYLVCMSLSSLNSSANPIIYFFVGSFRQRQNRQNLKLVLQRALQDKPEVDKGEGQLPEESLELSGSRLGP
Protocol: as §1, §2
Calcium imaging was performed immediately after loading cells with Fura-2, using a ZEISS Axiovert 200M microscope platform equipped with a flipping filter wheel for ratiometric imaging. […] The software later analyzed all images taken during each excitation period. Ratiometric changes were measured in 10-20 cells in each individual experiment. An average of the fluorescence of the cells in each image was calculated and plotted against time in seconds. […]

“Boc-Gln-D-Trp(Formyl)-Phe benzyl ester trifluoroacetate [QWF]” was tested, and the “mode of QWF antagonism of substance P at hMRGPRX2” value (hMRGPRX2) was “competitive antagonist”, the “inhibition of degranulation induced by SP” value (human LAD2 mast cells) was “significantly inhibits” and the “inhibition of degranulation induced by atracurium” value (human LAD2 mast cells) was “significantly inhibits”. For the same substance, the “inhibition of degranulation induced by ciprofloxacin” value (human LAD2 mast cells) was “significantly inhibits”, the “inhibition of degranulation induced by compound 48/80” value (human LAD2 mast cells) was “significantly inhibits” and the “inhibition of NK1 (activation by SP)” value (NK1R (NK1)) was “inhibit; also recorded: blocks”.

In the case of “SP: inflammatory undecapeptide neuropeptide of the tachykinin family, synthesized by GenScript”, the “activation of hMRGPRX4 by the substance (in words)” value (MrgX4 (human MRGPRX4)) was “does not activate”.
